Measurements published in US9708314B2, “Heterocyclic amide compound” (NISSAN CHEMICAL INDUSTRIES, LTD., priority 2013, dated 2017).

Tests used:
Assay type in all cases: in vivo
Scirpus juncoides = assay: Test Example 2: herbicidal activity, application during weed generation in submerged conditions; conditions: Eighteenth Table; application herbicide amount 320 g/ha
How it was run: (§1)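 Scored three weeks post-application on a 0–5 scale (5: ≥90% herbicidal ratio, almost withered; 0: ≤5%). Plants raised from mixed-sown seed in submerged alluvial soil (4 cm water), 25–30 °C greenhouse; water-diluted emulsion applied onto water surface at one- to two-leaf stage, dose in g/ha.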

[1] = tested on: Echinochloa oryzacola Vasing.; assay: as above; conditions: Eighteenth Table; application herbicide amount 320 g/ha
How it was run: as §1

Monochoria vaginalis = assay: as above; conditions: Eighteenth Table; application herbicide amount 320 g/ha
How it was run: as §1

Glycine max = assay: Test Example 4: effect on crop by application to foliage (diluvial soil, plastic box); conditions: application to foliage, application herbicide amount 320 g/ha
How it was run: (§2)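 Seeds sown in sterilized diluvial soil, covered ~1.5 cm, grown 14 days in greenhouse at 25° C. to 30° C. Emulsion formulation diluted in water to set rate (g/ha) and sprayed onto stems and leaves. Effect scored visually 3 weeks later on 0–5 scale (5 = ≥90% herbicidal ratio, 0 = ≤5%).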

Triticum aestivum = assay: as above; conditions: application to foliage, application herbicide amount 320 g/ha
How it was run: as §2

[2] = tested on: Beta vulgaris ssp. vulgaris; assay: as above; conditions: application to foliage, application herbicide amount 320 g/ha
How it was run: as §2

Brassica campestris L. = assay: as above; conditions: application to foliage, application herbicide amount 320 g/ha
How it was run: as §2

[3] = tested on: directly sowed Oryza sativa; assay: as above; conditions: application to foliage, application herbicide amount 320 g/ha
How it was run: as §2

Zea mays = assay: as above; conditions: application to foliage, application herbicide amount 320 g/ha
How it was run: as §2

Avena fatua = assay: Test Example 4: herbicidal effect by application to foliage (diluvial soil, plastic box); conditions: application to foliage, application herbicide amount 320 g/ha
How it was run: as §2

[4] = tested on: Echinochloa crus-galli var. crus-galli; assay: as above; conditions: application to foliage, application herbicide amount 320 g/ha
How it was run: as §2

Abutilon theophrasti = assay: as above; conditions: application to foliage, application herbicide amount 320 g/ha
How it was run: as §2

Lolium multiflorum Lam. = assay: as above; conditions: application to foliage, application herbicide amount 320 g/ha
How it was run: as §2

Setaria viridis = assay: as above; conditions: application to foliage, application herbicide amount 320 g/ha
How it was run: as §2

Apera spica-venti. = assay: as above; conditions: application to foliage, application herbicide amount 320 g/ha
How it was run: as §2

Veronica persica = assay: as above; conditions: application to foliage, application herbicide amount 320 g/ha
How it was run: as §2

Chenopodium album = assay: as above; conditions: application to foliage, application herbicide amount 320 g/ha
How it was run: as §2

Alopecurus myosuroides = assay: as above; conditions: application to foliage, application herbicide amount 320 g/ha
How it was run: as §2

Digitaria ciliaris = assay: as above; conditions: application to foliage, application herbicide amount 320 g/ha
How it was run: as §2

Galium spurium = assay: as above; conditions: application to foliage, application herbicide amount 320 g/ha
How it was run: as §2

Compound	B (Scirpus juncoides) herbicidal ratio grade (Scirpus juncoides)	A (Echinochloa oryzicola Vasing.) herbicidal ratio grade [1]	C (Monochoria vaginalis) herbicidal ratio grade (Monochoria vaginalis)	c (Glycine max) effect on crop (Glycine max)	e (Triticum aestivum) effect on crop (Triticum aestivum)	f (Beta vulgaris ssp. vulgaris) effect on crop [2]	g (Brassica campestris L.) effect on crop (Brassica campestris L.)	d (directly sowed Oryza sativa) effect on crop [3]	b (Zea mays) effect on crop (Zea mays)	I (Avena fatua) herbicidal effect (Avena fatua)	H (Echinochloa crus-galli var. crus-galli) herbicidal effect [4]	M (Abutilon theophrasti) herbicidal effect (Abutilon theophrasti)	K (Lolium multiflorum Lam.) herbicidal effect (Lolium multiflorum Lam.)	G (Setaria viridis) herbicidal effect (Setaria viridis)	L (Apera spica-venti.) herbicidal effect (Apera spica-venti.)	R (Veronica persica) herbicidal effect (Veronica persica)	O (Chenopodium album) herbicidal effect (Chenopodium album)	J (Alopecurus myosuroides) herbicidal effect (Alopecurus myosuroides)	F (Digitaria ciliaris) herbicidal effect (Digitaria ciliaris)	Q (Galium spurium) herbicidal effect (Galium spurium)
CSCc1nnc2c(C(=O)Nc3nnc(C)o3)ccc(C(F)(F)F)n12 [1-030]	3 (Herbicidal ratio of 40% or more and less than 70%)	4 (Herbicidal ratio of 70% or more and less than 90%)	3 (Herbicidal ratio of 40% or more and less than 70%)	2 (Herbicidal ratio of 20% or more and less than 40%)	3 (Herbicidal ratio of 40% or more and less than 70%)	5 (Herbicidal ratio of 90% or more (almost completely withered))	4 (Herbicidal ratio of 70% or more and less than 90%)	5 (Herbicidal ratio of 90% or more (almost completely withered))	3 (Herbicidal ratio of 40% or more and less than 70%)	4 (Herbicidal ratio of 70% or more and less than 90%)	5 (Herbicidal ratio of 90% or more (almost completely withered))	5 (Herbicidal ratio of 90% or more (almost completely withered))	3 (Herbicidal ratio of 40% or more and less than 70%)	5 (Herbicidal ratio of 90% or more (almost completely withered))	4 (Herbicidal ratio of 70% or more and less than 90%)	4 (Herbicidal ratio of 70% or more and less than 90%)	5 (Herbicidal ratio of 90% or more (almost completely withered))	3 (Herbicidal ratio of 40% or more and less than 70%)	5 (Herbicidal ratio of 90% or more (almost completely withered))	4 (Herbicidal ratio of 70% or more and less than 90%)
Cc1nnc(NC(=O)c2ccc(C(F)(F)F)n3c(C[S+]([O-])CC(F)(F)F)nnc23)o1 (centres unmarked) [1-038]	1 (Herbicidal ratio of 5% or more and less than 20%)	1 (Herbicidal ratio of 5% or more and less than 20%)	0 (Herbicidal ratio of 5% or less (almost no effect))	0 (Herbicidal ratio of 5% or less (almost no effect))	1 (Herbicidal ratio of 5% or more and less than 20%)	5 (Herbicidal ratio of 90% or more (almost completely withered))	4 (Herbicidal ratio of 70% or more and less than 90%)	4 (Herbicidal ratio of 70% or more and less than 90%)	0 (Herbicidal ratio of 5% or less (almost no effect))	3 (Herbicidal ratio of 40% or more and less than 70%)	5 (Herbicidal ratio of 90% or more (almost completely withered))	5 (Herbicidal ratio of 90% or more (almost completely withered))	1 (Herbicidal ratio of 5% or more and less than 20%)	5 (Herbicidal ratio of 90% or more (almost completely withered))	2 (Herbicidal ratio of 20% or more and less than 40%)	5 (Herbicidal ratio of 90% or more (almost completely withered))	5 (Herbicidal ratio of 90% or more (almost completely withered))	1 (Herbicidal ratio of 5% or more and less than 20%)	5 (Herbicidal ratio of 90% or more (almost completely withered))	3 (Herbicidal ratio of 40% or more and less than 70%)
CCOCc1nnc2c(C(=O)Nc3nnc(C)o3)ccc(C(F)(F)F)n12 [1-027]	3 (Herbicidal ratio of 40% or more and less than 70%)	4 (Herbicidal ratio of 70% or more and less than 90%)	3 (Herbicidal ratio of 40% or more and less than 70%)	1 (Herbicidal ratio of 5% or more and less than 20%)	2 (Herbicidal ratio of 20% or more and less than 40%)	5 (Herbicidal ratio of 90% or more (almost completely withered))	4 (Herbicidal ratio of 70% or more and less than 90%)	5 (Herbicidal ratio of 90% or more (almost completely withered))	0 (Herbicidal ratio of 5% or less (almost no effect))	2 (Herbicidal ratio of 20% or more and less than 40%)	5 (Herbicidal ratio of 90% or more (almost completely withered))	5 (Herbicidal ratio of 90% or more (almost completely withered))	1 (Herbicidal ratio of 5% or more and less than 20%)	4 (Herbicidal ratio of 70% or more and less than 90%)	3 (Herbicidal ratio of 40% or more and less than 70%)	5 (Herbicidal ratio of 90% or more (almost completely withered))	5 (Herbicidal ratio of 90% or more (almost completely withered))	2 (Herbicidal ratio of 20% or more and less than 40%)	5 (Herbicidal ratio of 90% or more (almost completely withered))	3 (Herbicidal ratio of 40% or more and less than 70%)
CCC(C)c1nnc2c(C(=O)Nc3nnc(C)o3)ccc(C(F)(F)F)n12 (centres unmarked) [1-021]	4 (Herbicidal ratio of 70% or more and less than 90%)	4 (Herbicidal ratio of 70% or more and less than 90%)	3 (Herbicidal ratio of 40% or more and less than 70%)	0 (Herbicidal ratio of 5% or less (almost no effect))	1 (Herbicidal ratio of 5% or more and less than 20%)	5 (Herbicidal ratio of 90% or more (almost completely withered))	3 (Herbicidal ratio of 40% or more and less than 70%)	3 (Herbicidal ratio of 40% or more and less than 70%)	1 (Herbicidal ratio of 5% or more and less than 20%)	1 (Herbicidal ratio of 5% or more and less than 20%)	4 (Herbicidal ratio of 70% or more and less than 90%)	5 (Herbicidal ratio of 90% or more (almost completely withered))	1 (Herbicidal ratio of 5% or more and less than 20%)	3 (Herbicidal ratio of 40% or more and less than 70%)	1 (Herbicidal ratio of 5% or more and less than 20%)	4 (Herbicidal ratio of 70% or more and less than 90%)	5 (Herbicidal ratio of 90% or more (almost completely withered))	1 (Herbicidal ratio of 5% or more and less than 20%)	4 (Herbicidal ratio of 70% or more and less than 90%)	3 (Herbicidal ratio of 40% or more and less than 70%)
